The values below come from PubChem BioAssay AID1259407 (Chemical Carcinogenesis Research Information System (CCRIS), 2018).

Active and inactive are the calls of the source. How the calls were made is not given here.

In the data set the test system is CCRIS mutagenicity, Ames/micronucleus/aberration tests. As to the kind of experiment: CCRIS mutagenicity studies.
[1] abbreviates: Test System: AMES SALMONELLA TYPHIMURIUM, Strain/Indicator: TA98, Metabolic Activation: NONE, Method: PREINCUBATION
The mark [2] stands for this setting: Test System: AMES SALMONELLA TYPHIMURIUM, Strain/Indicator: TA100, Metabolic Activation: NONE, Method: STANDARD PLATE.

Turning to `O=C(O)c1ccccc1Nc1cc(Cl)ccc1C(=O)O`, the mutagenic call reads like this: under setting [1], “inactive; negative”; (Test System: AMES SALMONELLA TYPHIMURIUM, Strain/Indicator: TA98, Metabolic Activation: NONE, Method: STANDARD PLATE) “inactive; negative”; (Test System: AMES SALMONELLA TYPHIMURIUM, Strain/Indicator: TA98, Metabolic Activation: RAT, LIVER, S-9, AROCLOR 1254, Method: PREINCUBATION) “inactive; negative”; (Test System: AMES SALMONELLA TYPHIMURIUM, Strain/Indicator: TA98, Metabolic Activation: RAT, LIVER, S-9, AROCLOR 1254, Method: STANDARD PLATE) “inactive; negative”; under setting [2], “inactive; negative”; (Test System: AMES SALMONELLA TYPHIMURIUM, Strain/Indicator: TA100, Metabolic Activation: RAT, LIVER, S-9, AROCLOR 1254, Method: STANDARD PLATE) “inactive; negative”. For the same molecule, the mutagenic call is “inactive; negative” (Test System: AMES SALMONELLA TYPHIMURIUM, Strain/Indicator: TA1535, Metabolic Activation: NONE, Method: STANDARD PLATE); “inactive; negative” (Test System: AMES SALMONELLA TYPHIMURIUM, Strain/Indicator: TA1535, Metabolic Activation: RAT, LIVER, S-9, AROCLOR 1254, Method: STANDARD PLATE); “inactive; negative” (Test System: AMES SALMONELLA TYPHIMURIUM, Strain/Indicator: TA1537, Metabolic Activation: NONE, Method: STANDARD PLATE); “inactive; negative” (Test System: AMES SALMONELLA TYPHIMURIUM, Strain/Indicator: TA1537, Metabolic Activation: RAT, LIVER, S-9, AROCLOR 1254, Method: STANDARD PLATE); “inactive; negative” (Test System: AMES SALMONELLA TYPHIMURIUM, Strain/Indicator: TA1538, Metabolic Activation: NONE, Method: STANDARD PLATE); “inactive; negative” (Test System: AMES SALMONELLA TYPHIMURIUM, Strain/Indicator: TA1538, Metabolic Activation: RAT, LIVER, S-9, AROCLOR 1254, Method: STANDARD PLATE).
Turning to `Cc1ccc(C(C)C)c(O)c1`, the mutagenic call (End Point: IN VITRO CHROMOSOMAL ABERRATIONS, Test System: SYRIAN HAMSTER EMBRYO (SHE) CELLS, Metabolic Activation: NONE) is “inactive; negative; toxic at 520 um”; the mutagenic call (End Point: IN VITRO CHROMOSOMAL ABERRATIONS, Test System: SYRIAN HAMSTER EMBRYO (SHE) CELLS, Metabolic Activation: RAT, LIVER, S-9) is “active; positive (structural changes)”; the mutagenic call (End Point: In vitro micronucleus, Test System: Human peripheral lymphocytes) is “active; positive”; the mutagenic call (End Point: In vivo chromosomal aberrations, Test System: Bone marrow cells, Species: Rat, Strain/Sex: Sprague-Dawley/Male, Route: Intraperitoneal) is “active; positive (structural and numerical changes)”; the mutagenic call (End Point: In vivo chromosomal aberrations, Test System: Human peripheral lymphocytes) is “active; positive (structural changes)”; the mutagenic call (Test System: AMES SALMONELLA TYPHIMURIUM, Strain/Indicator: TA97, Metabolic Activation: NONE, Method: PREINCUBATION (20 MIN)) was “inactive; negative”. Also, the mutagenic call runs as follows: (Test System: AMES SALMONELLA TYPHIMURIUM, Strain/Indicator: TA97, Metabolic Activation: S-9, Method: PREINCUBATION (20 MIN)) “inactive; negative”; (Test System: AMES SALMONELLA TYPHIMURIUM, Strain/Indicator: TA98, Metabolic Activation: NONE, Method: PREINCUBATION (20 MIN)) “inactive; negative”; (Test System: AMES SALMONELLA TYPHIMURIUM, Strain/Indicator: TA98, Metabolic Activation: S-9, Method: PREINCUBATION (20 MIN)) “inactive; negative”; (Test System: AMES SALMONELLA TYPHIMURIUM, Strain/Indicator: TA100, Metabolic Activation: NONE, Method: PREINCUBATION (20 MIN)) “inactive; negative”; (Test System: AMES SALMONELLA TYPHIMURIUM, Strain/Indicator: TA100, Metabolic Activation: S-9, Method: PREINCUBATION (20 MIN)) “inactive; negative”.
As to `Nc1cc(N)c(N=Nc2ccc(S(=O)(=O)O)cc2S(=O)(=O)O)cc1N=Nc1ccc(-c2ccc(N/N=C3\C=CC(=O)C(C(=O)O)=C3)cc2)cc1`, the mutagenic call (Test System: AMES SALMONELLA TYPHIMURIUM, Strain/Indicator: TA98, Metabolic Activation: HAMSTER, LIVER, S-9, Method: PREINCUBATION (PRIVAL METHOD)) was “active; positive”.
With `[CH3][Hg][Cl]`, the mutagenic call is “active; positive (structural changes)” (End Point: IN VITRO CHROMOSOMAL ABERRATIONS, Test System: CHO CELLS, Metabolic Activation: NONE); “active; positive” (End Point: IN VITRO MICRONUCLEUS, Test System: CHL/IU CELLS, Metabolic Activation: NONE); “active; positive” (End Point: IN VITRO MICRONUCLEUS, Test System: HUMAN PERIPHERAL LYMPHOCYTES, Metabolic Activation: NONE); “active; positive” (End Point: IN VITRO MICRONUCLEUS, Test System: HUMAN PERIPHERAL LYMPHOCYTES, Metabolic Activation: NONE, Method: FISH (CENTROMERIC SIGNAL CONTENT)); “inactive; negative” (Test System: AMES SALMONELLA TYPHIMURIUM, Strain/Indicator: TA97, Metabolic Activation: HAMSTER, LIVER, S-9, AROCLOR 1254 (10 OR 30%), Method: PREINCUBATION); “inactive; negative” (Test System: AMES SALMONELLA TYPHIMURIUM, Strain/Indicator: TA97, Metabolic Activation: NONE, Method: PREINCUBATION). Further, the mutagenic call is “inactive; negative” (Test System: AMES SALMONELLA TYPHIMURIUM, Strain/Indicator: TA97, Metabolic Activation: RAT, LIVER, S-9, AROCLOR 1254 (10 OR 30%), Method: PREINCUBATION); “inactive; negative” (Test System: AMES SALMONELLA TYPHIMURIUM, Strain/Indicator: TA98, Metabolic Activation: HAMSTER, LIVER, S-9, AROCLOR 1254 (10 OR 30%), Method: PREINCUBATION); “inactive; negative” under setting [1]; “inactive; negative” (Test System: AMES SALMONELLA TYPHIMURIUM, Strain/Indicator: TA98, Metabolic Activation: RAT, LIVER, S-9, AROCLOR 1254 (10 OR 30%), Method: PREINCUBATION); “inactive; negative” (Test System: AMES SALMONELLA TYPHIMURIUM, Strain/Indicator: TA100, Metabolic Activation: HAMSTER, LIVER, S-9, AROCLOR 1254 (10 OR 30%), Method: PREINCUBATION); “inactive; negative” (Test System: AMES SALMONELLA TYPHIMURIUM, Strain/Indicator: TA100, Metabolic Activation: NONE, Method: PREINCUBATION). Also, the mutagenic call runs as follows: (Test System: AMES SALMONELLA TYPHIMURIUM, Strain/Indicator: TA100, Metabolic Activation: RAT, LIVER, S-9, AROCLOR 1254 (10 OR 30%), Method: PREINCUBATION) “inactive; negative”; (Test System: AMES SALMONELLA TYPHIMURIUM, Strain/Indicator: TA1535, Metabolic Activation: HAMSTER, LIVER, S-9, AROCLOR 1254 (10 OR 30%), Method: PREINCUBATION) “inactive; negative”; (Test System: AMES SALMONELLA TYPHIMURIUM, Strain/Indicator: TA1535, Metabolic Activation: NONE, Method: PREINCUBATION) “inactive; negative”; (Test System: AMES SALMONELLA TYPHIMURIUM, Strain/Indicator: TA1535, Metabolic Activation: RAT, LIVER, S-9, AROCLOR 1254 (10 OR 30%), Method: PREINCUBATION) “inactive; negative”; (Test System: AMES SALMONELLA TYPHIMURIUM, Strain/Indicator: TA1537, Metabolic Activation: HAMSTER, LIVER, S-9, AROCLOR 1254 (10 OR 30%), Method: PREINCUBATION) “inactive; negative”; (Test System: AMES SALMONELLA TYPHIMURIUM, Strain/Indicator: TA1537, Metabolic Activation: NONE, Method: PREINCUBATION) “inactive; negative”. Moreover, the mutagenic call by setting is: (Test System: AMES SALMONELLA TYPHIMURIUM, Strain/Indicator: TA1537, Metabolic Activation: RAT, LIVER, S-9, AROCLOR 1254 (10 OR 30%), Method: PREINCUBATION) “inactive; negative”; (Test System: E. COLI, Strain/Indicator: WP2 UVRA, Metabolic Activation: NONE, Method: SPOT TEST) “active; positive”; (Test System: E. COLI, Strain/Indicator: WP2 UVRA, Metabolic Activation: NONE, Method: STANDARD PLATE) “active; positive”.
On to `OCc1ccc(Br)cc1`, for which the mutagenic call under setting [2] was “inactive; negative”.
